From paper PMC3236199, “Development of Derivatives of 3, 3′-Diindolylmethane as Potent Leishmania donovani Bi-Subunit Topoisomerase IB Poisons” (PLoS ONE, 2011)

Experiments:
LdTOP1LS = assay: Plasmid cleavage assay; type: biochemical, Leishmania donovani; settings: 50 µM, pHOT1 DNA
Procedure: Cleavage assay was carried out as described previously. Briefly, 50 fmol of pHOT1 supercoiled DNA (containing topoisomerase I cleavage site) and 100 fmol of reconstituted LdTOP1LS were incubated in standard reaction mixture (50 µl) containing 50 mM Tris/HCl (pH 7.5), 100 mM KCl, 10 mM MgCl2, 0.5 mM DTT, 0.5 mM EDTA and 30 µg/ml BSA in the presence of various concentrations of drugs at 37°C for 30 min. The reactions were terminated by adding 1% SDS and 150 µg/ml proteinase K and further incubated for 1 h at 37°C. DNA samples were electrophoresed in a 1% agarose gel containing 0.5 µg/ml EtBr.
The effect of DIM and its derivatives on L. donovani topoisomerase I was examined by plasmid DNA cleavage assay as described. The topoisomerase reaction has three general mechanistic steps: (i) binding of enzyme to the substrate DNA, (ii) single strand breakage and subsequent strand rotation through the break leading to change in linking number, and (iii) strand religation. The second step of reaction is the introduction of a single-stranded nick in the phosphodiester bond of the DNA, through which an intact strand is allowed to pass. […]

[1] = system: L. donovani topoisomerase I; assay: Immunoband depletion assay, topoisomerase I; type: cell-based, Leishmania donovani; settings: preincubation with 20 µM DHBA before DIM, DPDIM, DMDIM or DMODIM
Procedure: Leishmania cells (3×10^7) were cultured in absence and presence of the drugs. Nuclear fractions were isolated as described. Briefly, cells were suspended in hypotonic buffer (10 mM Tris-HCl, pH 7.5, 1 mM EDTA, 0.1 mM EGTA, 1 mM PMSF, 1 mM benzamidine hydrochloride and 5 mM DTT) and homogenized. The homogenate was centrifuged for 10 min at 10,000 g. The pellets were washed and used as the source of nuclear fraction. Thereafter, the nuclear fractions were lysed with 1% SDS and subjected to SDS-PAGE (10%). The proteins were electrophoretically transferred to nitrocellulose membranes and immumobloting of immobilized proteins were carried out using a rabbit polyclonal antibody raised against LdTOP1S for topoisomerase I and ATPase domain of L. donovani topoisomerase II [8].
We have reported earlier that DIM induces topoisomerase I and not topoisomerase II-mediated cleavable complex formation in L. donovani. To investigate the ability of DIM derivatives to induce in vivo covalent complex formation between topoisomerase I and DNA in the Leishmania parasites we performed the immunoband depletion experiments with L. donovani promastigotes. Nuclear fractions were prepared from untreated as well as drug-treated promastigotes and subjected to SDS-PAGE. If topoisomerase I can form a covalent complex with genomic DNA inside the cells, then topoisomerase I-DNA cleavable complex cannot enter into the gel. […] The presence of topoisomerase I was detected by immunoblotting as described in ‘Materials and Methods’. It was observed that the immunoband of topoisomerase I disappeared in presence of 20 µM of DIM, DPDIM, DMDIM and DMODIM for 6 h incubation respectively (lanes 2–5). […] It should be mentioned here that topoisomerase I of Leishmania is a heterodimer and the catalytic site (SKXXY) is present in the small subunit of enzyme (LdTOP1S), which is involved in the formation of topoisomerase I-DNA covalent complex. So we have used the antibody raised against the small subunit of L. donovani topoisomerase I to study the immunoband depletion assay.
Figure 6 DIM-derivatives induce in vivo formation of topoisomerase-DNA cleavable complex within the cells. Stabilization of topoisomerase-I mediated cleavable complex was determined by immunoband depletion assay. Top panel: Immunoband depletion of L. donovani topoisomerase I, using an antibody raised against […]. Leishmanial cells were treated with 0.2% DMSO alone (lane 1), 20 µM each of DIM (lane 2), DPDIM (lane 3), DMDIM (lane 4) and DMODIM (lane 5) respectively. Lanes 6–9, preincubation with 20 µM DHBA before treatment with DIM, DPDIM, DMDIM and DMODIM respectively. Bottom panel: β-tubulin loading control.

Structure (SMILES)	conversion of closed circular DNA (form I) to nicked circular DNA (form II) (LdTOP1LS)	immunoband of topoisomerase I after preincubation before treatment with drugs [1]
CC[C@@]1(O)C(=O)OCc2c1cc1n(c2=O)Cc2cc3ccccc3nc2-1 [CPT, camptothecin, reference compound]	totally converted to nicked circular DNA	–
CC(C)[C@@H]1CC[C@]2(C(=O)O)CC[C@]3(C)C(CCC4[C@@]5(C)CC[C@H](O)C(C)(C)C5CC[C@]43C)C12 (some centres unmarked) [DHBA, reference compound]	–	reappearance of immunoband
